Assay results: publication PMC9572541, “Design, Synthesis and Biological Evaluation of Novel and Potent Protein Arginine Methyltransferases 5 Inhibitors for Cancer Therapy” (Molecules, 2022)
Entries after “also recorded” stand apart in the source; their conditions may differ. Like-named read-outs stand apart in the source and are kept apart here.

Legend:
MV-4-11 xenograft = MV-4-11 xenograft mouse model; format: in vivo, BALB/c nude mice; conditions: 28 days
Experimental: Based on the excellent enzymatic and anti-proliferative activities of compound 20 in vitro, we then evaluated antitumor activities in vivo in an MV-4-11 xenograft mouse model.
Male BALB/c nude mice (6–8 weeks old) were purchased from Hangzhou Medical College. All animals were housed in a specific pathogen-free facility. MV-4-11 cells (5 × 10^6) suspended in 0.2 mL of PBS were inoculated subcutaneously on the right flank of each BALB/c nude mouse. Mice were divided randomly (5 mice for each group) into two treatment groups and a control group when the size of the tumors reached 150 mm^3. […] The tumor volume and body weight were measured every 2 days. The tumor volume was determined with Vernier calipers and calculated as follows: tumor volume = a × b^2/2, where a and b stand for the longest and shortest diameters measured by the vernier caliper, respectively. All animal experiments have been approved by Pharmaceutical Experiment Center of China Pharmaceutical University.
(A) The resulting tumors excised from the animals after treatment. […] (C) The nude mouse body weight was measured every 2 days. (D) The tumor volumes of the nude mice were measured and calculated once every 2 days.

[1] = Pharmacokinetic study in ICR mice; format: in vivo, mouse; conditions: for MRT last: read-out: MRT0-t; for MRT inf: read-out: MRT0-∞
Experimental: The pharmacokinetic properties were evaluated by PRECEDO. China. SPF ICR mice (18–20 g, 6–8 weeks, n = 3 per group) were used to carried out pharmacokinetics determinations. […] Colleting samples at different times after treatment. Plasma was obtained from the blood samples by centrifugation (6000 rpm for 3 min at 2–8 °C) and stored at −20 °C. The LC-MS/MS (Shimadzu, API 4000) method was used to determine the concentration of each animal at each time point.

AML-12 hepatocytes = test: Toxicity on normal AML-12 hepatocytes; format: cell-based
Description: MV-4-11 and MDA-MB-468 cell lines were used to evaluate the anti-proliferative activities of the selected target compounds (CellTiter-Glo assay), and AML-12 hepatocytes were selected to evaluate the toxicity of the compounds.
MV-4-11 and MDA-MB-468 cell line were derived from Cell Resources Center of Shanghai Academy of life sciences (Shanghai, China). AML-12 cell line was brough from Nanjing Lixing Biotechnology Co. Ltd. (Nanjing, China). MDA-MB-468 cell line was maintained in Dulbecco’s Modified Eagle Medium (DMEM, KeyGEN Bio) that contained 10% FBS (Biochanel, China), MV-4-11 cell line was maintained in Iscove’s Modified Dulbecco Medium containing; 10% FBS (Biochannel, China), AML-12 cell line was maintained in DMEM/F-12 (1:1) (KeyGEN, China; 1% ITS Liquid Media Supplement (Sigma, America), dexamethasone 40 ng/mL (Sigma, USA) and 10% FBS (Biochannel, China). All cells were grown in a humidified incubator containing 5% carbon dioxide at 37 ℃. All compounds were dispersed in dimethyl sulfoxide (Sigma), the concentration of the reserve solution was 10 mmol/L and the solution was stored in a refrigerator at −20 ℃. SDMA (# 13222S), β- Tubulin (#2146S) and horseradish peroxidase (HRP)-linked secondary antibodies anti-rabbit or anti-mouse IgG were purchased from Cell Signaling Technology (CST), and the anti-PRMT5 (ab109451) antibody was purchased from ABCAM. […]

sDMA = test: Western blot of sDMA in MV-4-11 xenograft tumors; format: in vivo, BALB/c nude mice; conditions: 10 mg/kg, 28 days
Experimental: Subsequently, we investigated the effects of compound 20 on the expression of the PRMT5 substrate sDMA in vivo (Figure 8). Similarly, the expression of sDMA was decreased after the treatment of compound 20, which was in line with its antitumor activity in vivo.
Tumor tissue was grinded by a cryo-grinder before being lysed with an RIPA buffer, protease inhibitors (PMSF, MCE), and phosphatase cocktails II (MCE). The mixture was centrifuged for 15 min (12,000 rpm). The following steps were the same as with cells.
(A) Western blot analysis of sDMA as indicated in MV-4-11 xenograft tumors treated with the indicated compounds for 28 days. (B) The relative strength of sDMA signal on the Western blots was measured by densitometry. The data are shown as the mean ± SD of three independent experiments. * p < 0.05 vs. control.

[2] = ICR, mouse, plasma, iv, 2 mg/kg, male mice, Table S1, mean ± SD
[3] = ICR, mouse, plasma, oral gavage, 10 mg/kg, male mice, Table S2, mean
[4] = male, ICR, mouse, plasma, iv, 2 mg/kg, ICR mouse, Table 4
[5] = male, ICR, mouse, plasma, iv, 2 mg/kg, male mice, Table S1, mean ± SD
[6] = male, ICR, mouse, plasma, po, 10 mg/kg, ICR mouse, Table 4
[7] = male, ICR, mouse, plasma, po, 10 mg/kg, oral gavage, male mice, Table S2, mean

O=C(NC[C@H](O)CN1CCc2ccccc2C1)c1ccc2c(c1)c1c(n2CC2COC2)CCCC1 [Compound 20, (S)-N-(3-(3,4-dihydroisoquinolin-2(1H)-yl)-2-hydroxypropyl)-9-(oxetan-3-ylmethyl)-2,3,4,9-tetrahydro-1H-carbazole-6-carboxamide]
body weight (MV-4-11 xenograft; 10 mg/kg BID): no significant weight fluctuations | tolerability / mortality (MV-4-11 xenograft; 10 mg/kg BID): well-tolerated with no mortality | TGI (MV-4-11 xenograft; 10 mg/kg, twice daily (BID)): 47.6% | AUC(0-t) [1, 2]: 1030 ± 68.5 ng·h/mL | C0 [1, 2]: 1940 ± 330 ng/mL | Tmax [1, 2]: 4.8 min | half-life [1, 2]: 29.4 ± 13.8 min | MRT last [1, 2]: 26.4 ± 3 min | MRT inf [1, 2]: 27 ± 3 min | AUC(0-t) [1, 3]: 728 ng·h/mL | Tmax [1, 3]: 15 min | bioavailability [1, 3]: 14.5% | half-life [1, 3]: 364 min | MRT last [1, 3]: 73.2 min | MRT inf [1, 3]: 115 min | T1/2 ([1]; iv, 2 mg/kg, ICR mouse, Table 4): 29.4 min | AUC(0-inf) [1, 4]: 1030 ng·h/mL | Cmax [1, 4]: 1690 ng/mL | clearance [1, 4]: 32.4 mL/min/kg | Vd ([1]; male, ICR, mouse, plasma, iv, 2 mg/kg, iv, 2 mg/kg, ICR mouse, Table 4, read-out: Vss): 1.35 L/kg | Vd ([1]; male, ICR, mouse, plasma, iv, 2 mg/kg, iv, 2 mg/kg, male mice, Table S1, mean ± SD, read-out: Vz): 1.35 ± 0.556 L/kg | AUC(0-inf) [1, 5]: 1030 ± 64.8 ng·h/mL | Cmax [1, 5]: 1690 ± 133 ng/mL | clearance [1, 5]: 32.4 mL/min/kg | AUC(0-inf) [1, 6]: 747 ng·h/mL | Cmax [1, 6]: 1270 ng/mL | AUC(0-inf) [1, 7]: 747 ng·h/mL | Cmax [1, 7]: 1270 ng/mL | bioavailability ([1]; male, plasma, po 10 mg/kg vs iv 2 mg/kg, ICR mouse, Table 4): 14.5% | T1/2 ([1]; po, 10 mg/kg, ICR mouse, Table 4): 364 min | toxicity to normal AML-12 hepatocytes (in words) (AML-12 hepatocytes): almost no toxicity; also recorded: no significant cytotoxicity | inhibition at 10 µM (AML-12 hepatocytes; Mus musculus, AML12, read-out: AML-12 Inhibition Rate% @10 μM): -30.5 ± 9.4% | inhibition at 20 µM (AML-12 hepatocytes; Mus musculus, AML12, read-out: AML-12 Inhibition Rate% @20 μM): -27 ± 1.2% | expression of sDMA in vivo (sDMA): decreased
